Experimental findings from the Kinase Knowledgebase extract (Sharma et al. 2016) are described below.

The target of the experiment is PIK3CB;PIK3CG;PIK3CD;PIK3CA (human) (UniProt P48736). As to the kind of experiment: Inhibition of PIK3CA/PIK3CB/PIK3CD/PIK3CG Kinase Activity.
On to `COCCNc1cc(C(=O)O)nc2c(-c3ccc(CO)cc3)nc(N3CCOCC3)nc12`, for which the concentration for half-maximal inhibition (IC50) amounted to 346 nM. In other words, the sub-micromolar range. Under `COCCN(C)c1cc(C(=O)O)nc2c(-c3ccc(CO)cc3)nc(N3CCOCC3)nc12` stands 546 nM. Under `Cc1cc(C(=O)O)nc2c(-c3cccc(O)c3)nc(N3CCOCC3)nc12` stands 225 nM; under `CN(C)c1cc(C(=O)O)nc2c(-c3cccc(C#N)c3)nc(N3CCOCC3)nc12`, 1100 nM.

In turn, `CN(C)c1cc(C(=O)O)nc2c(-c3ccc(O)cc3)nc(N3CCOCC3)nc12` registered an IC50 of 350 nM.

`COCCN(C)c1cc(C(=O)O)nc2c(-c3cc(O)cc(F)c3)nc(N3CCOCC3)nc12` displayed an IC50 of 19 nM. Compared with the last compound, the IC50 is about 18-fold lower. Then `COCCOc1cc(C(=O)O)nc2c(-c3cccc(O)c3)nc(N3CCOCC3)nc12`, with 255 nM. Then `CS(=O)(=O)c1cc(C(=O)O)nc2c(-c3cc(O)cc(F)c3)nc(N3CCOCC3)nc12`, with 15 nM. The compound `CN(CCO)c1cc(C(=O)O)nc2c(-c3cccc4[nH]ccc34)nc(N3CCOCC3)nc12` had a 50% inhibitory concentration (IC50) of 77 nM. Regarding `O=C(O)c1cc(Cl)c2nc(N3CCOCC3)nc(-c3ccccc3)c2n1`, the IC50 amounted to 678 nM. Compared with the last compound, the IC50 is about 8.8-fold higher. Consider `COCCN(C)c1cc(C(=O)O)nc2c(-c3ccc4[nH]ccc4c3)nc(N3CCOCC3)nc12`, for which the 50% inhibitory concentration (IC50) amounted to 169 nM. This IC50 lies about 4-fold lower than the previous one. `COCCNc1cc(C(=O)O)nc2c(-c3ccc(F)cc3O)nc(N3CCOCC3)nc12` returned an IC50 of 89 nM. Take `CS(=O)(=O)c1cc(C(=O)O)nc2c(-c3cc(F)ccc3O)nc(N3CCOCC3)nc12`: the IC50 turned out to be 139 nM. Under `CC(=O)N1CCN(c2cc(C(=O)O)nc3c(-c4cccc(O)c4)nc(N4CCOCC4)nc23)CC1` stands 80 nM; under `CS(=O)(=O)c1cc(C(=O)O)nc2c(-c3ccc(O)c(F)c3)nc(N3CCOCC3)nc12`, 335 nM.

With `O=C(O)c1ccc2nc(N3CCOCC3)nc(-c3cccc(O)c3)c2n1`, the concentration for half-maximal inhibition (IC50) was 63 nM. For the compound `COCc1cccc(-c2nc(N3CCOCC3)nc3c(NCCO)cc(C(=O)O)nc23)c1`, the IC50 was 2490 nM. Under `COc1cccc(-c2nc(N3CCOCC3)nc3c(Cl)cc(C(=O)O)nc23)c1` stands 1080 nM; under `COCCN(C)c1cc(C(=O)O)nc2c(-c3cccc(O)c3)nc(N3CCOCC3)nc12`, 28 nM; under `CN(C)CCN(C)c1cc(C(=O)O)nc2c(-c3cccc4[nH]ccc34)nc(N3CCOCC3)nc12`, 137 nM. `COCCNc1cc(C(=O)O)nc2c(-c3cc(F)ccc3O)nc(N3CCOCC3)nc12` showed an IC50 of 73 nM.

`O=C(O)c1cc(-c2cccc3ccccc23)c2nc(N3CCOCC3)nc(-c3cccc(O)c3)c2n1`: the half-maximal inhibitory concentration (IC50) is 57 nM.

On to `CN(C)CCN(C)c1cc(C(=O)O)nc2c(-c3ccccc3O)nc(N3CCOCC3)nc12`, for which the IC50 amounted to 459 nM. Against the preceding compound, the IC50 is about 8.1-fold higher.

Consider `COc1cccc(-c2nc(N3CCOCC3)nc3ccc(C(=O)O)nc23)c1`, for which the IC50 worked out at 4490 nM. Under `COCCN(C)c1cc(C(=O)O)nc2c(-c3cccc(F)c3O)nc(N3CCOCC3)nc12` stands 9 nM. Then `COCCN(C)c1cc(C(=O)O)nc2c(-c3ccc(O)cc3)nc(N3CCOCC3)nc12`, with 290 nM; and `COCCNc1cc(C(=O)O)nc2c(-c3cccc(COC)c3)nc(N3CCOCC3)nc12`, with 1830 nM. Under `CN(C)c1cc(C(=O)O)nc2c(-c3cccc4[nH]ccc34)nc(N3CCOCC3)nc12` stands 132 nM; under `O=C(O)c1cc(NCCO)c2nc(N3CCOCC3)nc(-c3cc(O)cc(F)c3)c2n1`, 64 nM; under `O=C(O)c1cc(NCCO)c2nc(N3CCOCC3)nc(-c3ccc(O)cc3)c2n1`, 732 nM. In turn, `CN(C)c1cc(C(=O)O)nc2c(-c3cccc(CO)c3)nc(N3CCOCC3)nc12` showed a 50% inhibitory concentration (IC50) of 34 nM.

The compound `COCc1cccc(-c2nc(N3CCOCC3)nc3c(N(C)CCO)cc(C(=O)O)nc23)c1` showed a 50% inhibitory concentration (IC50) of 1850 nM. Then `CS(=O)(=O)c1cc(C(=O)O)nc2c(-c3cccc(F)c3O)nc(N3CCOCC3)nc12`, with 26 nM. In turn, `COCCNc1cc(C(=O)O)nc2c(-c3cccc(F)c3O)nc(N3CCOCC3)nc12` returned an IC50 of 18 nM. Under `CS(=O)(=O)N1CCN(c2cc(C(=O)O)nc3c(-c4ccccc4)nc(N4CCOCC4)nc23)CC1` stands 30 nM; under `CN(C)CCN(C)c1cc(C(=O)O)nc2c(-c3cc(F)ccc3O)nc(N3CCOCC3)nc12`, 564 nM; under `O=C(O)c1cc(NCCO)c2nc(N3CCOCC3)nc(-c3cccc(F)c3O)c2n1`, 43 nM. Under `CNc1cc(C(=O)O)nc2c(-c3cccc(O)c3)nc(N3CCOCC3)nc12` stands 144 nM; under `CN(CCO)c1cc(C(=O)O)nc2c(-c3ccc(F)c(CO)c3)nc(N3CCOCC3)nc12`, 303 nM. On to `COCCN(C)c1cc(C(=O)O)nc2c(-c3cccc(CO)c3)nc(N3CCOCC3)nc12`, for which the half-maximal inhibitory concentration (IC50) was determined as 8 nM. In turn, `CN(C)c1cc(C(=O)O)nc2c(-c3cc(F)ccc3O)nc(N3CCOCC3)nc12` gave a 50% inhibitory concentration (IC50) of 66 nM. Then `COCCOc1cc(C(=O)O)nc2c(-c3ccc(O)cc3)nc(N3CCOCC3)nc12`, with 2520 nM. In turn, `COCc1cccc(-c2nc(N3CCOCC3)nc3c(N(C)C)cc(C(=O)O)nc23)c1` returned an IC50 of 5050 nM. Compared with the last compound, the IC50 is about 2-fold higher. Under `CNc1cc(C(=O)O)nc2c(-c3cccc4[nH]ccc34)nc(N3CCOCC3)nc12` stands 780 nM; under `CN(C)c1cc(C(=O)O)nc2c(-c3ccccc3O)nc(N3CCOCC3)nc12`, 23 nM. In turn, `O=C(O)c1ccc2nc(N3CCOCC3)nc(-c3ccc(O)cc3)c2n1` displayed an IC50 of 855 nM. On to `Cc1cc(O)ccc1-c1nc(N2CCOCC2)nc2c(N(C)CCO)cc(C(=O)O)nc12`, for which the half-inhibitory concentration (IC50) worked out at 936 nM. Then `O=C(O)c1cc(NCCO)c2nc(N3CCOCC3)nc(-c3cccc(CO)c3)c2n1`, with 27 nM; and `CNc1cc(C(=O)O)nc2c(-c3ccc(F)cc3O)nc(N3CCOCC3)nc12`, with 412 nM; and `O=C(O)c1cc(NCCO)c2nc(N3CCOCC3)nc(-c3ccccc3O)c2n1`, with 82 nM. In the case of `COc1ccccc1-c1cc(C(=O)O)nc2c(-c3cccc(O)c3)nc(N3CCOCC3)nc12`, the IC50 amounted to 24 nM. Compound `COCCNc1cc(C(=O)O)nc2c(-c3cccc4[nH]ccc34)nc(N3CCOCC3)nc12` returned a concentration for half-maximal inhibition (IC50) of 128 nM. Compared with the last compound, the IC50 is about 5.3-fold higher. Under `COCCN(C)c1cc(C(=O)O)nc2c(-c3cc(F)cc(F)c3)nc(N3CCOCC3)nc12` stands 1290 nM.

For `COCCNc1cc(C(=O)O)nc2c(-c3ccc(O)cc3)nc(N3CCOCC3)nc12`, the half-inhibitory concentration (IC50) worked out at 504 nM. Regarding `O=C(O)c1cc(Cl)c2nc(N3CCOCC3)nc(-c3cccc(O)c3)c2n1`, the IC50 was determined as 108 nM.

For `CN(CCO)c1cc(C(=O)O)nc2c(-c3cccc(F)c3O)nc(N3CCOCC3)nc12`, the IC50 amounted to 10 nM. This IC50 lies about 11-fold lower than the previous one. Then `O=C(O)c1cc(NCCO)c2nc(N3CCOCC3)nc(-c3cccc(O)c3)c2n1`, with 75 nM; and `CN(CCO)c1cc(C(=O)O)nc2c(-c3ccc(F)cc3O)nc(N3CCOCC3)nc12`, with 220 nM. Under `CN(CCO)c1cc(C(=O)O)nc2c(-c3cccc(CO)c3)nc(N3CCOCC3)nc12` stands 74 nM; under `COCCOc1cc(C(=O)O)nc2c(-c3cc(O)cc(F)c3)nc(N3CCOCC3)nc12`, 93 nM; under `COCCN(C)c1cc(C(=O)O)nc2c(-c3ccc(F)cc3O)nc(N3CCOCC3)nc12`, 62 nM.

`CNc1cc(C(=O)O)nc2c(-c3cc(F)ccc3O)nc(N3CCOCC3)nc12` returned an IC50 of 304 nM. Then `CS(=O)(=O)N1CCN(c2cc(C(=O)O)nc3c(-c4cccc(O)c4)nc(N4CCOCC4)nc23)CC1`, with 15 nM; and `CN(C)c1cc(C(=O)O)nc2c(-c3ccc(F)cc3O)nc(N3CCOCC3)nc12`, with 83 nM; and `CNc1cc(C(=O)O)nc2c(-c3cccc(F)c3O)nc(N3CCOCC3)nc12`, with 48 nM. The compound `CN(C)c1cc(C(=O)O)nc2c(-c3ccc(F)c(CO)c3)nc(N3CCOCC3)nc12` came in with an IC50 of 329 nM.

A word on the IC50: it is the concentration that gives 50% inhibition. Read a high IC50 as weaker potency in that assay.
